The assay concerns the target T1, Pseudomonas fluorescens agglutinin (PFA) (Pseudomonas fluorescens, UniProt Q3KJ04).
T1 construct: gene Pfl01_0508; 14 kDa
T1 sequence (Q3KJ04 1-133): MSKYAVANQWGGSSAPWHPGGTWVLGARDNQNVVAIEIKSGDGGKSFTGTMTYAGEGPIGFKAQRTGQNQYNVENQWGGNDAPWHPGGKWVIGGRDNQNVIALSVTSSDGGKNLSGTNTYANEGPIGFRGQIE
As to the kind of experiment: competitive ELISA on immobilized gp120. As to conditions: inhibition of PFA binding to immobilized gp120, 400 nM PFA, 0-2000 mM mannose, room temperature not stated for this step. For orientation: In an ELISA, binding on a coated surface is turned into a signal by an enzyme label.

`OC[C@H]1OC(O)[C@@H](O)[C@@H](O)[C@@H]1O` (stereo partly shown) [mannose]: the onset of inhibition was ~ 200 mM.

(Values after PMC7423246, “A Peptide–Lectin Fusion Strategy for Developing a Glycan Probe for Use in Various Assay Formats” (Chemosensors (Basel, Switzerland), 2019).)
